# Measured values: patent US12312330B2, “1-((S)-1-(3-chloro-5-fluoro-2-((4-(1h-pyrazol-1-yl)-2-methylquinolin-8-yloxy)methyl)phenyl)ethyl)-imidazolidine-2,4-dione derivatives and related compounds as bradykinin (BK) B2 receptor antagonist for treating skin diseases” (Pharvaris GmbH, priority 2019, dated 2025)
# Target: T1, human bradykinin B2 receptor (hB2R) (Homo sapiens, UniProt P30411)
# T1 sequence (P30411 1-391): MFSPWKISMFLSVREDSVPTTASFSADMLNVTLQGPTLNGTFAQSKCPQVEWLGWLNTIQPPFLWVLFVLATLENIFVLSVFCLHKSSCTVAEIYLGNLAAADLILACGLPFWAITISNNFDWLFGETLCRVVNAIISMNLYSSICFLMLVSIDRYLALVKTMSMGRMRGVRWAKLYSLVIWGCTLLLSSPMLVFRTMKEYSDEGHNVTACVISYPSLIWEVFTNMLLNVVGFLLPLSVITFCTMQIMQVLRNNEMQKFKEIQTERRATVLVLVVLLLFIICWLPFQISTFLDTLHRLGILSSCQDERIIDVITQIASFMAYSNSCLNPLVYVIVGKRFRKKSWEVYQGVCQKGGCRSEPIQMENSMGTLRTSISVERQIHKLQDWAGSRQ
# Test: human bradykinin B2 receptor calcium mobilization (hB2R-CaM) assay
# Assay type: cell-based
# Conditions: antagonism of bradykinin (EC80) induced calcium mobilization, B2 Bradykinin Receptor Stable Cell Line HTS041C, 25 min pre-incubation; read-out: IC50-value towards human bradykinin B2 receptor (hB2R)
# From the text: The following cell-based human bradykinin B2 receptor calcium mobilization (hB2R-CaM) assay was used to determine the antagonistic activity of compounds selected from the example compounds Nos. 1 to 107 towards human bradykinin B2 receptor (hB2R). The assay is defined herein as a standard in vitro B2 receptor activity assay, which can be used to determine IC50 values of the compounds according to the present invention, e. g. the compounds shown in Examples 1-13.
# The antagonistic activity of compounds according to the present invention was investigated with the hB2R-CaM assay using the B2 Bradykinin Receptor Stable Cell Line HTS041C (Eurofins, St. Charles MO) and the FLIPR Calcium 6 Assay Kit (Molecular Devices, Wokingham, UK) according to the instructions of the providers. CaM assay measurements were performed with a Flexstation 3 System (Molecular Devices) which allows the precise addition of compounds (B2R antagonists) and bradykinin (B2R agonist) to the cells and adjacent continuous recording of the time-dependent CaM assay signals.
# HTS041C cells were cultured in high glucose DMEM cell culture medium (Lonza) supplemented with 10% heat-inactivated FBS (PAN Biotech), 10 mM HEPES, Penicillin/Streptomycin (200 U/mL, 200 μg/mL), lx non-essential amino acids (Lonza), and 250 μg/mL G418 (Invivogen) in cell incubator at 37° C. in a 5% CO2 atmosphere. One day before the CaM assay experiments cells were seeded in 200 μL DMEM cell culture medium with reduced FBS (5%) and without G418 on clear bottom black 96 well plates (ThermoFisher #165305). Cell starvation was carried out by incubation (37° C., 5% CO2) of 70.000 cells/well for 24 h to 28 h. Immediately prior calcium dye-loading the medium was carefully aspirated and cells were washed with Hank's balanced salt solution (HBSS, Gibco) containing Ca^2+, Mg^2+ and 20 mM HEPES, adjusted to pH 7.4 (HBSS+).
# For calcium dye-loading one FLIPR 6 assay aliquot was dissolved in 20 mL HBSS+. 150 μL of the dye loading solution was added to cell plate and incubated for 120 min at 37° C. and 5% CO2. After dye loading the cell plate was immediately transferred to the pre-warmed (37° C.) Flexstation 3 System for CaM assaying.
# Freshly prepared compound (B2 receptor antagonists) dilution series (8 pt, n=2) and bradykinin (B2 receptor agonist) solution in non-binding plates (Costar) were transferred to the Flexstation System (source plate) shortly before starting the experiment. Bradykinin was added in EC80 concentration determined in n>3 preliminary experiments with 8 pt concentration response curves (n=8)). CaM assay was executed by Flexstation 3 System starting with recording of calcium-sensitive dye fluorescence in bottom-read Flex modus with ex/em=485 nm/525 nm, cut off(em)=515 nm After 20 s, 50 μL of 4-fold concentrated compound dilutions were added to the cells resulting in a final DMSO (Sigma) concentration of 0.1% in the cell plate. CaM signals were monitored for 80 s after additions for detection of potential agonistic activities. Prior to bradykinin stimulus compound- and vehicle-treated cells were incubated for 25 min at 37° C. within the Flexstation System. Then 50 μL of a 5-fold concentrated bradykinin solution (HBSS+, 0.1% DMSO) was added to trigger CaM signals (Read out: Max-Min values) which were measured for 80 s post bradykinin stimulus.
# IC50 determinations were performed by 4 parameter logistic model curve fitting of the 8 pt (n=2) compound concentration response curves using XLFIT (IDBS) software.
row,IC50 [µM],Compound
1,≤ 0.01,"Cc1cc(-c2ncnn2C)c2cccc(OCc3c(Cl)cc(F)cc3[C@H](C)N3CC[C@H](O)C3=O)c2n1 [Compound No. 4, (S)-1-((S)-1-(3-chloro-5-fluoro-2-((2-methyl-4-(1-methyl-1H-1,2,4-triazol-5-yl)quinolin-8-yloxy)methyl)phenyl)ethyl)-3-hydroxypyrrolidin-2-one]"
2,0.011 to 0.1,Cc1cc(-c2ncnn2C)c2cccc(OCc3c(Cl)cc(F)cc3[C@H](C)N3CC(=O)N(C)CC3=O)c2n1 [compound 47]
3,≤ 0.01,Cc1cc(-n2cc(F)cn2)c2cccc(OCc3c(Cl)cc(F)cc3[C@H](C)N3C[C@@H](C)NC(=O)C3=O)c2n1 [compound 97]
4,0.011 to 0.1,CCN1C(=O)CN([C@@H](C)c2cc(F)cc(Cl)c2COc2cccc3c(-n4cc(F)cn4)cc(C)nc23)C1=O [compound 107]
5,0.011 to 0.1,Cc1cc(-c2ncnn2C)c2cccc(OCc3c(Cl)cc(F)cc3[C@H](C)N3C[C@H](O)CCC3=O)c2n1 [compound 83]
6,0.011 to 0.1,Cc1cc(-n2cc(F)cn2)c2cccc(OCc3c(Cl)cc(F)cc3[C@H](C)N3CC(=O)N(CC(=O)O)C3=O)c2n1 [compound 22]
7,0.011 to 0.1,Cc1cc(-n2cc(F)cn2)c2cccc(OCc3c(Cl)cc(F)cc3[C@H](C)N3CC(=O)N(CCN)C3=O)c2n1 [compound 23]
8,≤ 0.01,Cc1cc(-c2ncnn2C)c2cccc(OCc3c(Cl)cc(F)cc3[C@H](C)N3C[C@H](C)OCC3=O)c2n1 [compound 41]
9,0.011 to 0.1,Cc1cc(-n2cc(F)cn2)c2cccc(OCc3c(Cl)cc(F)cc3[C@H](C)N3CC(=O)NCC3=O)c2n1 [compound 25]
10,0.011 to 0.1,"Cc1cc(-c2ncnn2C)c2cccc(OCc3c(Cl)cc(F)cc3[C@H](C)N3C[C@@H](O)CCC3=O)c2n1 [Compound No. 8, (S)-1-((S)-1-(3-chloro-5-fluoro-2-((2-methyl-4-(1-methyl-1H-1,2,4-triazol-5-yl)quinolin-8-yloxy)methyl)phenyl)ethyl)-5-hydroxypiperidin-2-one]"
11,0.011 to 0.1,Cc1cc(-n2cc(F)cn2)c2cccc(OCc3c(Cl)cc(F)cc3[C@H](C)N3CC(=O)NC(C)(C)C3=O)c2n1 [compound 102]
12,0.011 to 0.1,Cc1cc(-c2ncnn2C)c2cccc(OCc3c(Cl)cc(F)cc3[C@H](C)N3CCC(C)(C)C3=O)c2n1 [compound 65]
13,0.011 to 0.1,Cc1cc(-n2cc(F)cn2)c2cccc(OCc3c(Cl)cc(F)cc3[C@H](C)N3C[C@@H](C)OCC3=O)c2n1 [compound 39]
14,≤ 0.01,Cc1cc(-n2cc(F)cn2)c2cccc(OCc3c(Cl)cc(F)cc3[C@H](C)N3CC[C@H](Cl)C3=O)c2n1 [compound 37]
15,≤ 0.01,CCN1CCN([C@@H](C)c2cc(F)cc(Cl)c2COc2cccc3c(-n4cc(F)cn4)cc(C)nc23)C(=O)C1 [compound 81]
16,≤ 0.01,Cc1cc(-c2ncnn2C)c2cccc(OCc3c(Cl)cc(F)cc3[C@H](C)N3CC(=O)N(C)[C@H](C)C3=O)c2n1 [compound 104]
17,≤ 0.01,Cc1cc(-n2cc(F)cn2)c2cccc(OCc3c(Cl)cc(F)cc3[C@H](C)N3CCN(C(C)C)CC3=O)c2n1 [compound 76]
18,≤ 0.01,"Cc1cc(-c2ncnn2C)c2cccc(OCc3c(Cl)cc(F)cc3[C@H](C)N3CCC(C)C3=O)c2n1 (single isomer, unassigned) [compound 60]"
19,≤ 0.01,"CCN1C(=O)C(C)N([C@@H](C)c2cc(F)cc(Cl)c2COc2cccc3c(-c4ncnn4C)cc(C)nc23)C1=O (single isomer, unassigned) [compound 53]"
20,≤ 0.01,Cc1cc(-c2ncnn2C)c2cccc(OCc3c(Cl)cc(F)cc3[C@H](C)N3CC[C@H](F)C3=O)c2n1 [compound 91]

row,IC50 [µM],Compound
1,≤ 0.01,Cc1cc(-c2ncnn2C)c2cccc(OCc3c(Cl)cc(F)cc3[C@H](C)N3CC[C@@H](OC(F)F)C3=O)c2n1 [compound 88]
2,≤ 0.01,"Cc1cc(-n2cc(F)cn2)c2cccc(OCc3c(Cl)cc(F)cc3[C@H](C)N3C(=O)N(C4CC4)C(=O)C3C)c2n1 (single isomer, unassigned) [compound 30]"
3,≤ 0.01,Cc1cc(-n2cc(F)cn2)c2cccc(OCc3c(Cl)cc(F)cc3[C@H](C)N3CCN(C)[C@H](C)C3=O)c2n1 [compound 93]
4,0.011 to 0.1,"Cc1cc(-n2cc(F)cn2)c2cccc(OCc3c(Cl)cc(F)cc3[C@H](C)N3CC(=O)N(CC(N)=O)C3=O)c2n1 [Compound No. 1, (S)-2-(3-(1-(3-chloro-5-fluoro-2-((4-(4-fluoro-1H-pyrazol-1-yl)-2-methylquinolin-8-yloxy)methyl)phenyl)ethyl)-2,5-dioxoimidazolidin-1-yl)acetamide]"
5,≤ 0.01,Cc1cc(-c2ncnn2C)c2cccc(OCc3c(Cl)cc(F)cc3[C@H](C)N3CC[C@H](Cl)C3=O)c2n1 [compound 44]
6,0.011 to 0.1,Cc1cc(-c2ncnn2C)c2cccc(OCc3c(Cl)cc(F)cc3[C@H](C)N3CC[C@H](N)C3=O)c2n1 [compound 69]
7,0.011 to 0.1,Cc1cc(-c2ncnn2C)c2cccc(OCc3c(Cl)cc(F)cc3[C@H](C)N3C(=O)[C@@H](C)NC(=O)[C@H]3C)c2n1 [compound 105]
8,0.011 to 0.1,Cc1cc(-n2cc(F)cn2)c2cccc(OCc3c(Cl)cc(F)cc3[C@H](C)N3CC(C)CC3=O)c2n1 (stereo partly drawn) [compound 62]
9,0.011 to 0.1,Cc1cc(-n2cc(F)cn2)c2cccc(OCc3c(Cl)cc(F)cc3[C@H](C)N3CCOCC3=O)c2n1 [compound 18]
10,0.011 to 0.1,Cc1cc(-n2cc(F)cn2)c2cccc(OCc3c(Cl)cc(F)cc3[C@H](C)N3CC(=O)N(C4CC4)C3=O)c2n1 [compound 17]
11,0.011 to 0.1,Cc1cc(-n2cc(F)cn2)c2cccc(OCc3c(Cl)cc(F)cc3[C@H](C)N3CC(=O)N(CC(=O)N(C)C)C3=O)c2n1 [compound 21]
12,0.011 to 0.1,Cc1cc(-n2cc(F)cn2)c2cccc(OCc3c(Cl)cc(F)cc3[C@H](C)N3CC[C@@H](O)C3=O)c2n1 [compound 42]
13,0.011 to 0.1,CNC(=O)CN1C(=O)CN([C@@H](C)c2cc(F)cc(Cl)c2COc2cccc3c(-n4cc(F)cn4)cc(C)nc23)C1=O [compound 20]
14,≤ 0.01,CCC1CCC(=O)N([C@@H](C)c2cc(F)cc(Cl)c2COc2cccc3c(-c4ncnn4C)cc(C)nc23)C1 (stereo partly drawn) [compound 67]
15,0.011 to 0.1,Cc1cc(-n2cc(F)cn2)c2cccc(OCc3c(Cl)cc(F)cc3[C@H](C)N3CC(=O)NC3=O)c2n1 [compound 19]
16,0.011 to 0.1,"Cc1cc(-c2ncnn2C)c2cccc(OCc3c(Cl)cc(F)cc3[C@H](C)N3CCC[C@@H](O)C3=O)c2n1 [Compound No. 7, (R)-1-((S)-1-(3-chloro-5-fluoro-2-((2-methyl-4-(1-methyl-1H-1,2,4-triazol-5-yl)quinolin-8-yloxy)methyl)phenyl)ethyl)-3-hydroxypiperidin-2-one]"
17,0.011 to 0.1,"Cc1cc(-n2cc(F)cn2)c2cccc(OCc3c(Cl)cc(F)cc3[C@H](C)N3CCNC3=O)c2n1 [Compound No. 3, (S)-1-(1-(3-chloro-5-fluoro-2-((4-(4-fluoro-1H-pyrazol-1-yl)-2-methylquinolin-8-yloxy)methyl)phenyl)ethyl)imidazolidin-2-one]"
18,0.011 to 0.1,Cc1cc(-n2cc(F)cn2)c2cccc(OCc3c(Cl)cc(F)cc3[C@H](C)N3CCCC3=O)c2n1 [compound 13]
19,≤ 0.01,Cc1cc(-n2cc(F)cn2)c2cccc(OCc3c(Cl)cc(F)cc3[C@H](C)N3CCN[C@@H](C)C3=O)c2n1 [compound 94]
